Experimental data: ChEMBL document CHEMBL4507283, “Data for DCP probe BI-1935” (2021)

What was measured:
[1] = biological target: Adrenergic receptor alpha-2 (Rattus norvegicus) (UniProt P22086+P19328+P22909); assay: ALPHA2/R Eurofins-Panlabs selectivity data (BI); type: protein assay; conditions: Compound concentration 10.0 uM
[2] = biological target: High affinity nerve growth factor receptor (Homo sapiens) (UniProt P04629); conditions: Compound concentration 1000.0 nM
[3] = tested on: Tyrosine-protein kinase ABL1 (Homo sapiens), P00519 [Q252H]; conditions: Compound concentration 1000.0 nM
[4] = biological target: Phosphatidylinositol 4-phosphate 3-kinase C2 domain-containing subunit beta (Homo sapiens) (UniProt O00750); conditions: Compound concentration 1000.0 nM
[5] = tested on: Tyrosine-protein kinase ABL1 (Homo sapiens), P00519 [Y253F]; conditions: Compound concentration 1000.0 nM
[6] = biological target: AP2-associated protein kinase 1 (Homo sapiens) (UniProt Q2M2I8); conditions: Compound concentration 1000.0 nM
[7] = biological target: Cytoplasmic tyrosine-protein kinase BMX (Homo sapiens) (UniProt P51813); conditions: Compound concentration 1000.0 nM
Sequence of Cytoplasmic tyrosine-protein kinase BMX (Homo sapiens) (P51813 whole entry): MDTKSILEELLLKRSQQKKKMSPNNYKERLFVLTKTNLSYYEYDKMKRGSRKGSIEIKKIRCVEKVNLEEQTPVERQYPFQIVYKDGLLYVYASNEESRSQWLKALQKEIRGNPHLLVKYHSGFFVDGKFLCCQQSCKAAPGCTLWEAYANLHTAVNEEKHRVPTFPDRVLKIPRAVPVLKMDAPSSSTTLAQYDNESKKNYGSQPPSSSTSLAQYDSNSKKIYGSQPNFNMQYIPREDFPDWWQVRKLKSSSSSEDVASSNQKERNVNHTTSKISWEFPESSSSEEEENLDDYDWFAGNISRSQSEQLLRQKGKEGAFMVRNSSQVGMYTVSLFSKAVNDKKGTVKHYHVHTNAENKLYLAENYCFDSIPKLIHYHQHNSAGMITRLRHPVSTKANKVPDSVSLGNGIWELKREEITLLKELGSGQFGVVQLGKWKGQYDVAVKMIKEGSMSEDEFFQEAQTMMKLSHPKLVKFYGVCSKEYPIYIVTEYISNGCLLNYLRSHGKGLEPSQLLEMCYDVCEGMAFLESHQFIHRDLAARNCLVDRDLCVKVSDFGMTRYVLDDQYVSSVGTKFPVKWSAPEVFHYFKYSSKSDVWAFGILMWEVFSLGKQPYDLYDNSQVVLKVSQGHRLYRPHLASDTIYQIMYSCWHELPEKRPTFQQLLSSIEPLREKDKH

[8] = biological target: Dual specificity mitogen-activated protein kinase kinase 5 (Homo sapiens) (UniProt Q13163); conditions: Compound concentration 1000.0 nM
Sequence of Dual specificity mitogen-activated protein kinase kinase 5 (Homo sapiens) (Q13163 whole entry): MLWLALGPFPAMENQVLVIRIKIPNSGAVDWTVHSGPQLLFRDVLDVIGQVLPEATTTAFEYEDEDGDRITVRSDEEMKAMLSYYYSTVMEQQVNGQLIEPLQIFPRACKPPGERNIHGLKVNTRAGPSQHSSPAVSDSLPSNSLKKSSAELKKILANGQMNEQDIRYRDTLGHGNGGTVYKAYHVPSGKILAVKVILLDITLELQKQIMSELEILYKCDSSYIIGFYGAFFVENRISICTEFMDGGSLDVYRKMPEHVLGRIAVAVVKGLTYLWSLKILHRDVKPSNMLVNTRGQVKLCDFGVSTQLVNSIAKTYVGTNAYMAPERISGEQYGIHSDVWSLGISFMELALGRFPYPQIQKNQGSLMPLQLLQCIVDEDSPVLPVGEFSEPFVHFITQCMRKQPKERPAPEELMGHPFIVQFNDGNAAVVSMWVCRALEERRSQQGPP

[9] = biological target: Tyrosine-protein kinase receptor TYRO3 (Homo sapiens) (UniProt Q06418); conditions: Compound concentration 1000.0 nM
[10] = biological target: Dual specificity tyrosine-phosphorylation-regulated kinase 2 (Homo sapiens) (UniProt Q92630); conditions: Compound concentration 1000.0 nM
[11] = biological target: Fibroblast growth factor receptor 3 (Homo sapiens) (UniProt P22607); conditions: Compound concentration 1000.0 nM
Sequence of Fibroblast growth factor receptor 3 (Homo sapiens) (P22607 23-806 limits assumed): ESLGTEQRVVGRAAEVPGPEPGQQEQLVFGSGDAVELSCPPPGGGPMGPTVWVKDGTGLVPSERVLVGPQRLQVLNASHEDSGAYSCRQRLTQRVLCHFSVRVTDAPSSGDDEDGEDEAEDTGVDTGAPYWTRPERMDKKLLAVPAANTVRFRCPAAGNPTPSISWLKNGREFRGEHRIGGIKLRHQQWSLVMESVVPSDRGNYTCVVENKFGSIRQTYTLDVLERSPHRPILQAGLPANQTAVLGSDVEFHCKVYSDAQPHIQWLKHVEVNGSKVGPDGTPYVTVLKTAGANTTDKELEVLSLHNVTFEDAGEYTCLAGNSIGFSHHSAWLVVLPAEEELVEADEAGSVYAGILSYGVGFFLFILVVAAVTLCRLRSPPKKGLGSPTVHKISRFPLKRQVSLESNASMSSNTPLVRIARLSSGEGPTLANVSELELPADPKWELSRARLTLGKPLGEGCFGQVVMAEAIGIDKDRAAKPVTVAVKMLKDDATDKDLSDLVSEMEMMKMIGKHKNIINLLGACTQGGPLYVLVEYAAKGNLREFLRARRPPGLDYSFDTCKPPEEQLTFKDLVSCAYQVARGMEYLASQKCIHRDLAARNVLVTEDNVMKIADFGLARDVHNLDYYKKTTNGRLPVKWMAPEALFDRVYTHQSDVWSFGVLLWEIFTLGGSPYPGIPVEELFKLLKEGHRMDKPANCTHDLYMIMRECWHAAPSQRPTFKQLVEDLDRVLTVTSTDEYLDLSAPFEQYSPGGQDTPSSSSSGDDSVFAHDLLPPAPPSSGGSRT

[12] = biological target: BMP-2-inducible protein kinase (Homo sapiens) (UniProt Q9NSY1); conditions: Compound concentration 1000.0 nM
Sequence of BMP-2-inducible protein kinase (Homo sapiens) (Q9NSY1 whole entry, looked up): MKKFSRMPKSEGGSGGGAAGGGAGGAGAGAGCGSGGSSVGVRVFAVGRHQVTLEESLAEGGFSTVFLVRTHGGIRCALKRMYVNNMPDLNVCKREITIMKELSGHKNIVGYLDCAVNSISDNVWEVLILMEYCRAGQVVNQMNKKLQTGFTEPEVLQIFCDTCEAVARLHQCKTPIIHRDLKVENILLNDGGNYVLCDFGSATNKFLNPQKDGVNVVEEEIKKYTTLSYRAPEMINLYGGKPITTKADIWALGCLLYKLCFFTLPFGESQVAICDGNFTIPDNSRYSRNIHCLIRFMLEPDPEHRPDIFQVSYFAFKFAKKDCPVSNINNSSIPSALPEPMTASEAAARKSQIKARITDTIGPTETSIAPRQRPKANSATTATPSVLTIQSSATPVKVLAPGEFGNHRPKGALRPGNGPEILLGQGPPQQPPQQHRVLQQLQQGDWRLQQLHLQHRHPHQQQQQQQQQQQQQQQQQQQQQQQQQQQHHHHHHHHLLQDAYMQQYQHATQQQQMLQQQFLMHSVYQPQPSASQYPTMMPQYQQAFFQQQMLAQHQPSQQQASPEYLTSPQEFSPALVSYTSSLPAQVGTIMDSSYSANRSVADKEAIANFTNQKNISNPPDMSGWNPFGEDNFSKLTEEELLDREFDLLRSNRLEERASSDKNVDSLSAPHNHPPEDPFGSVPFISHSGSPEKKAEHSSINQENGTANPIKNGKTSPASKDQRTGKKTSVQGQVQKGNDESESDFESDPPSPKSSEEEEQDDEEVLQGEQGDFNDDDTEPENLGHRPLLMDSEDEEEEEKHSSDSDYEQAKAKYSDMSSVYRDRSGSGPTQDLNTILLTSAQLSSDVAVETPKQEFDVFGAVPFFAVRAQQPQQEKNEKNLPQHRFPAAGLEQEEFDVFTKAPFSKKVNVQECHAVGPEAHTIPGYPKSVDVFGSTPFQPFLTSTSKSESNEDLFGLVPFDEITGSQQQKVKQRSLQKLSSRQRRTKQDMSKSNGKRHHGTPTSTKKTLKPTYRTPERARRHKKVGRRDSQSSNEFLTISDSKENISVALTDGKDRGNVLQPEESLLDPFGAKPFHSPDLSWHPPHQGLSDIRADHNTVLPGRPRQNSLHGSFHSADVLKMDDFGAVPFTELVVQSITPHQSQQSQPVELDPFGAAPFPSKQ

[13] = biological target: 5'-AMP-activated protein kinase catalytic subunit alpha-2 (Homo sapiens) (UniProt P54646); conditions: Compound concentration 1000.0 nM
[14] = biological target: Misshapen-like kinase 1 (Homo sapiens) (UniProt Q8N4C8); conditions: Compound concentration 1000.0 nM
[15] = biological target: T1, Polyunsaturated fatty acid 5-lipoxygenase (Homo sapiens) (UniProt P09917); assay: 5LO Eurofins-Panlabs selectivity data (BI)
T1 sequence (whole entry): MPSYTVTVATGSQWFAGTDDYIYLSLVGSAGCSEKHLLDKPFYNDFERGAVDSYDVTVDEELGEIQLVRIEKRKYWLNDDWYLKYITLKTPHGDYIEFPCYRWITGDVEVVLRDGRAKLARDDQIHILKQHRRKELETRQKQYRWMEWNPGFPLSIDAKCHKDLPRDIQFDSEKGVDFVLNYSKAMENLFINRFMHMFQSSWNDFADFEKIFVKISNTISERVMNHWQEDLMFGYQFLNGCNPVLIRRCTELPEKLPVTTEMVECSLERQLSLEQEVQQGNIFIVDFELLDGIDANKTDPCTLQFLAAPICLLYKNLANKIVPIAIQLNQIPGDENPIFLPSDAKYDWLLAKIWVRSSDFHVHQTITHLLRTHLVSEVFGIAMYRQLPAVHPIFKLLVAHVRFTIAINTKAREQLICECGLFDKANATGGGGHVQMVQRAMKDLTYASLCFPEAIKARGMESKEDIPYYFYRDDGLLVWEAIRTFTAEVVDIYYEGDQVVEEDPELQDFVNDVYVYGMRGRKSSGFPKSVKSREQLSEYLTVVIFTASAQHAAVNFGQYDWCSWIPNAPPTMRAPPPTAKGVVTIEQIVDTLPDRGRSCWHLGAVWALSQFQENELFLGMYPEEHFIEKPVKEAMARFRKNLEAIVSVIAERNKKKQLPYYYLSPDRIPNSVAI

[16] = biological target: Receptor-type tyrosine-protein kinase FLT3 (Homo sapiens) (UniProt P36888); conditions: Compound concentration 1000.0 nM
[17] = biological target: Mitogen-activated protein kinase kinase kinase 14 (Homo sapiens) (UniProt Q99558); conditions: Compound concentration 1000.0 nM
[18] = biological target: Serine/threonine-protein kinase ULK1 (Homo sapiens) (UniProt O75385); conditions: Compound concentration 1000.0 nM
[19] = biological target: Leucine-rich repeat serine/threonine-protein kinase 2 (Homo sapiens) (UniProt Q5S007); conditions: Compound concentration 1000.0 nM
[20] = tested on: Tyrosine-protein kinase ABL1 (Homo sapiens), P00519 [F317L]; conditions: Compound concentration 1000.0 nM
[21] = biological target: Prostaglandin G/H synthase 1 (Homo sapiens) (UniProt P23219); assay: COX-1 Eurofins-Panlabs selectivity data (BI); conditions: Compound concentration 10.0 uM
[22] = biological target: Death-associated protein kinase 2 (Homo sapiens) (UniProt Q9UIK4); conditions: Compound concentration 1000.0 nM
[23] = biological target: Cyclin-dependent kinase 4 (Homo sapiens) (UniProt P11802); conditions: Compound concentration 1000.0 nM
[24] = biological target: Serine/threonine-protein kinase MRCK alpha (Homo sapiens) (UniProt Q5VT25); conditions: Compound concentration 1000.0 nM
[25] = biological target: Protein kinase C eta type (Homo sapiens) (UniProt P24723); conditions: Compound concentration 1000.0 nM
[26] = biological target: Tyrosine-protein kinase TXK (Homo sapiens) (UniProt P42681); conditions: Compound concentration 1000.0 nM
[27] = biological target: Transient receptor potential cation channel subfamily M member 6 (Homo sapiens) (UniProt Q9BX84); conditions: Compound concentration 1000.0 nM
[28] = tested on: Epidermal growth factor receptor (Homo sapiens), P00533 [UNDEFINED MUTATION]; conditions: Compound concentration 1000.0 nM
[29] = biological target: D(3) dopamine receptor (Homo sapiens) (UniProt P35462); assay: D3/HU Eurofins-Panlabs selectivity data (BI); conditions: Compound concentration 10.0 uM
[30] = biological target: Tyrosine-protein kinase Blk (Homo sapiens) (UniProt P51451); conditions: Compound concentration 1000.0 nM
[31] = biological target: Testis-specific serine/threonine-protein kinase 1 (Homo sapiens) (UniProt Q9BXA7); conditions: Compound concentration 1000.0 nM
[32] = biological target: Inhibitor of nuclear factor kappa-B kinase subunit beta (Homo sapiens) (UniProt O14920); conditions: Compound concentration 1000.0 nM
[33] = biological target: Nitric oxide synthase 3 (Bos taurus) (UniProt P29473); assay: ENOS_MDS Eurofins-Panlabs selectivity data (BI); conditions: Compound concentration 10.0 uM
Sequence of Nitric oxide synthase 3 (Bos taurus) (P29473 whole entry, canonical isoform): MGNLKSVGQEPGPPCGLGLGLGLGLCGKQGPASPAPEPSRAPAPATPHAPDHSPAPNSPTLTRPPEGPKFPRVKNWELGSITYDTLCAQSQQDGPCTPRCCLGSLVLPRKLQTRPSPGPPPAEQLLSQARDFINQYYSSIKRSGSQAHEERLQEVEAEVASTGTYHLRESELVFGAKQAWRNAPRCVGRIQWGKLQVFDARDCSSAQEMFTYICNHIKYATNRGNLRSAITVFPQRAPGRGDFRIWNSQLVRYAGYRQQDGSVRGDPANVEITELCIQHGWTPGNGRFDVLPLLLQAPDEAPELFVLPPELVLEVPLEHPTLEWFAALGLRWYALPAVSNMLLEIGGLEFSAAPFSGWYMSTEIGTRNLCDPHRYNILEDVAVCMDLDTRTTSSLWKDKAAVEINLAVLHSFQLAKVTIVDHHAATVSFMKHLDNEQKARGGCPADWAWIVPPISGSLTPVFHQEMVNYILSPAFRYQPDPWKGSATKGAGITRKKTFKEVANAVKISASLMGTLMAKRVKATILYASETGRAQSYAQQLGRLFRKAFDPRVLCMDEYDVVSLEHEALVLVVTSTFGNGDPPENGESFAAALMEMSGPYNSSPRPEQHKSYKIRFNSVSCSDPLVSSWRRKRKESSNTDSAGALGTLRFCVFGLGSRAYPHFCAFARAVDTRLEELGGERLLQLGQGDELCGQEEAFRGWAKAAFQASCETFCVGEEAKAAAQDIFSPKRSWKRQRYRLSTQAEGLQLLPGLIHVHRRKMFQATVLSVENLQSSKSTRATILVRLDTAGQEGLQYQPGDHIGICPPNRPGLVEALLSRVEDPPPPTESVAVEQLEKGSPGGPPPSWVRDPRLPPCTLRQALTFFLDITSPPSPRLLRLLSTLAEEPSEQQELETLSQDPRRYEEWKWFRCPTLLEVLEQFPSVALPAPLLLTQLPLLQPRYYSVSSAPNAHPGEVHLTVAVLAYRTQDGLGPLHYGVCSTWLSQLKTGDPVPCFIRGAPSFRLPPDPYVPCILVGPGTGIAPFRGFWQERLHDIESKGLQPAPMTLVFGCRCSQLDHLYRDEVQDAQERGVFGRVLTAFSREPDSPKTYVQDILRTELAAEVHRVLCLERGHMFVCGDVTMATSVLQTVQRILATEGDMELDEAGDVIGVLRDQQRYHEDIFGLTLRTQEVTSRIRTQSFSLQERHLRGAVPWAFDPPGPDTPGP

[34] = biological target: Casein kinase I isoform alpha (Homo sapiens) (UniProt P48729); conditions: Compound concentration 1000.0 nM
[35] = tested on: Epidermal growth factor receptor (Homo sapiens), P00533 [G719C]; conditions: Compound concentration 1000.0 nM

Sequence of High affinity nerve growth factor receptor (Homo sapiens) (P04629 33-796 limits assumed): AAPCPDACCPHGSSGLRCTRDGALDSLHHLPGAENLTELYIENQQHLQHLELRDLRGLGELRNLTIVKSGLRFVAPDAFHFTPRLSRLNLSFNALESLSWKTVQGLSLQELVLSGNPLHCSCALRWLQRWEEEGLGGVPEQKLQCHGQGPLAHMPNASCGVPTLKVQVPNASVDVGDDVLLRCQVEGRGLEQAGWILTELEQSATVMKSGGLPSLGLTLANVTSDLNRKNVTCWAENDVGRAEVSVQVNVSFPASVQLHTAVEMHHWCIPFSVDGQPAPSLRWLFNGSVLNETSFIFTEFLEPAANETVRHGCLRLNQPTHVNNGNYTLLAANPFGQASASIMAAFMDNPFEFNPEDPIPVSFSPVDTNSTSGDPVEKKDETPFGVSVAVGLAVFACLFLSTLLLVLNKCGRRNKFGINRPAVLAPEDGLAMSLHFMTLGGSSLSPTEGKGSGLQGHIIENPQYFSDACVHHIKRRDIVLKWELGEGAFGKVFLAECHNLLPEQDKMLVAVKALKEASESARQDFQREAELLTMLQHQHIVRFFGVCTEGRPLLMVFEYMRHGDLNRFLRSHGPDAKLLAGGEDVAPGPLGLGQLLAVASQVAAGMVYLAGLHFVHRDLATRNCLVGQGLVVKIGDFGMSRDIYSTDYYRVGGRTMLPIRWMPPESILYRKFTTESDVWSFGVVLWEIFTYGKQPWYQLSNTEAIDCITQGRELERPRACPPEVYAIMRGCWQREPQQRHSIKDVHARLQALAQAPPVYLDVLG

**Q.** How did the residual activity [1] turn out when `CCOCCn1cc(C(=O)Nc2ccc(-n3nc(-c4cccnc4)cc3C(F)(F)F)cn2)ccc1=O` [BI 1935] was run?
**A.** Its residual activity is 91%.

**Q.** And the residual activity [2]?
**A.** Its residual activity is 100%.

**Q.** What about the residual activity [3] of the same compound?
**A.** The residual activity was 83%.

**Q.** What about the residual activity [4] of the same compound?
**A.** The residual activity was 72%.

**Q.** And the residual activity [5]?
**A.** The residual activity was 73%.

**Q.** What about the residual activity [6] of the same compound?
**A.** Its residual activity is 100%.

**Q.** And the residual activity [7]?
**A.** Its residual activity is 84%.

**Q.** And the residual activity [8]?
**A.** Its residual activity is 84%.

**Q.** And the residual activity [9]?
**A.** The residual activity was 0%.

**Q.** What about the residual activity [10] of the same compound?
**A.** The residual activity was 100%.

**Q.** What about the residual activity [11] of the same compound?
**A.** Its residual activity is 84%.

**Q.** And the residual activity [12]?
**A.** The residual activity was 95%.

**Q.** And the residual activity [13]?
**A.** Its residual activity is 100%.

**Q.** And the residual activity [14]?
**A.** The residual activity was 89%.

**Q.** And the residual activity ([15]; Compound concentration 0.3 uM)?
**A.** The residual activity was 99%.

**Q.** And the residual activity ([15]; Compound concentration 1.0 uM)?
**A.** Its residual activity is 88%.

**Q.** What about the residual activity ([15]; Compound concentration 3.0 uM) of the same compound?
**A.** The residual activity was 74%.

**Q.** What about the residual activity ([15]; Compound concentration 10.0 uM) of the same compound?
**A.** Its residual activity is 27.5%.

**Q.** And the residual activity ([15]; Compound concentration 30.0 uM)?
**A.** The residual activity was 2%.

**Q.** And the residual activity [16]?
**A.** Its residual activity is 87%.

**Q.** What about the residual activity [17] of the same compound?
**A.** Its residual activity is 69%.

**Q.** What about the residual activity [18] of the same compound?
**A.** Its residual activity is 76%.

**Q.** What about the residual activity [19] of the same compound?
**A.** Its residual activity is 100%.

**Q.** And the residual activity [20]?
**A.** Its residual activity is 100%.

**Q.** And the residual activity [21]?
**A.** Its residual activity is 163%.

**Q.** What about the residual activity [22] of the same compound?
**A.** Its residual activity is 93%.

**Q.** And the residual activity [23]?
**A.** The residual activity was 81%.

**Q.** And the residual activity [24]?
**A.** The residual activity was 100%.

**Q.** What about the residual activity [25] of the same compound?
**A.** The residual activity was 100%.

**Q.** And the residual activity [26]?
**A.** Its residual activity is 81%.

**Q.** And the residual activity [27]?
**A.** Its residual activity is 73%.

**Q.** And the residual activity [28]?
**A.** The residual activity was 96%.

**Q.** What about the residual activity [29] of the same compound?
**A.** Its residual activity is 110%.

**Q.** And the residual activity [30]?
**A.** Its residual activity is 89%.

**Q.** What about the residual activity [31] of the same compound?
**A.** Its residual activity is 100%.

**Q.** And the residual activity [32]?
**A.** Its residual activity is 100%.

**Q.** What about the residual activity [33] of the same compound?
**A.** Its residual activity is 111%.

**Q.** What about the residual activity [34] of the same compound?
**A.** Its residual activity is 74%.

**Q.** And the residual activity [35]?
**A.** The residual activity was 97%.
